The assay deals with T1, TGFβ1 (Homo sapiens, UniProt P01137).
T1 construct: the mature TGFβ1 is released by another cut; purchased R&D Systems Europe Ltd., Abingdon, UK
In kind it is cell-based. The note with it: TGFβ1 200 pg/ml. As to the method:
A line derived from mink pulmonary epithelium, MV-1-Lu, was used (CCL-64, American Type Cell Culture, Virginia, USA). The cells were grown in 162 cm^2 culture flasks (Costar Corporation, Cambridge, USA) in a stove at 37° C. and 5% CO2, until subconfluence was attained. A complete medium was used: RPMI 1640 with L-glutamine (GibcoBRL, Life Technologies Ltd., Paisley, Scotland) supplemented with 5% of foetal calf serum (FCS, Biological Industries, Kibbutz Beit Haemek, Israel), 10 mM HEPES (1M HEPES Buffer, Bio-Whittaker, Verviers, Belgium) and antibiotics (100 U/ml penicillin and 100 μ/ml streptomycin).
The MV-1-Lu cells grown as indicated above were removed from the bottom of the culture flasks using 5 ml of trypsin-EDTA (Biological Industries, Kibbutz Beit Haemek, Israel), resuspended in complete medium and centrifuged at 1500 rev/min for 8 minutes. After centrifugation the cells were resuspended in complete medium to a concentration of 50,000 cells/ml. For conducting the test, 10 ml of the cell suspension were taken and dispensed in 96-well, flat-bottom culture plates (Costar Corporation, Cambridge, USA), adding 100 μl/well, and were incubated overnight at 37° C. and 5% CO2, which permits adhesion of the cells to the bottom of the wells. […] The final concentration of FCS in the well was 2.5%. After 24 hours of incubation, 1 μCi of tritiated thymidine was added per well (25 Ci/mmol [methyl-^3H]-thymidine, Amersham Life Science, Buckinghamshire, UK) with incubation for a further 12 hours (Grubeck-Loebenstein B. et al. (1989) J. Clin. Invest. 83:764-770; Brennan F M et al. (1990) Clin. Exp. Immunol. 81:278-285).
At the end of the incubation periods the cells were removed from the bottom of the wells with trypsin-EDTA and were collected using a manual harvester (Titertek cell harvester, Skatron Instruments Inc., Sterling, USA) which ruptures the cells, collecting the DNA in nitrocellulose filters (Filter MAT 11731, Skatron Instruments Inc., Sterling, USA) where it is fixed. The filters were placed individually in 5 ml polypropylene tubes to which 4 ml of scintillation fluid was added (Biogreen-11, Reactivos Scharlau S. A., Barcelona, Spain). The activity of each tube was quantified for 90 seconds in a β LKB scintillation counter (Beta plate system, LKB, Uppsala, Sweden).
TGFβ1 is a cytokine that is able to inhibit the growth in vitro of the MV-1-Lu cell line (Grubeck-Loebenstein B. et al. (1989) J. Clin. Invest. 83:764-770; Brennan F M et al. (1990) Clin. Exp. Immunol. 81:278-285), therefore this line was used for testing the blocking effect of peptides on TGFβ1. After different combinations of media, cells and thymidine, we studied the effect of different concentrations of TGFβ1 on incorporation of [methyl-^3H]thymidine by MV-1-Lu cells in culture, for determining the most suitable conditions for the test. […]
The synthetic peptides that are potentially inhibitors of TGFβ1 activity, selected as indicated above in the section: selection of the peptides to be synthesized (both those derived from proteins that bind to TGFβ1 itself) were tested using the MV-1-Lu cell line. The selected peptides are soluble in buffered RPMI medium. The peptides were dissolved in buffered RPMI medium, free from foetal calf serum, and the following was used.
The peptides belonging to the sequence of the receptor, or complementary to the peaks of hydrophilicity of TGFβ1, were incubated for 30 minutes in the presence of this cytokine and were then combined with the cell culture. The peptides derived from the sequence of TGFβ1 were added to the cell culture prior to addition of TGFβ1, since they interact with the receptors of the cell surface. These incubations were effected in 100 μl of the same medium as was used for adding the cells. The active peptides permitted cell growth to a greater or lesser degree depending on its ability to inhibit TGFβ1.

No end group written: not given here.

T1 sequence (P01137 279-390): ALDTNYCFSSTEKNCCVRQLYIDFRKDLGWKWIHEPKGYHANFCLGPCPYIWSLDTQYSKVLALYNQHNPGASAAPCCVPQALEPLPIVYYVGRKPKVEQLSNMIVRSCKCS

Turning to “TSLDASIIWAMMQN [P144, ThrSerLeuAspAlaSerIleIleTrpAlaMetMetGlnAsn]”, the “dependence of the inhibitory activity on the peptide concentration” value (dose-response test) was “activity of the peptide decreases with the decrease in the concentration”. Further, where the note is “peptide 200 μg/ml, MV-1-Lu cells”, the “inhibitory activity of TGFβ1 (in words)” value was “had proved active”.

The values above are taken from patent US7528226B2, “TGFβ1-inhibitor peptides” (Rojecto de Biomedicina Cima S.L., priority 1998, dated 2009).
